Data reported in article PMC6282443 (Journal of Enzyme Inhibition and Medicinal Chemistry, 2018).
Where two headings read alike, the source gives them in different places.

How the values were obtained:
Format in all cases: cell-based, human
HepG2 cells = assay: MTT anti-proliferative assay, HepG2; details: read-out: Anti-proliferative activity IC50, HepG2
MCF-7 cells = assay: MTT anti-proliferative assay, MCF-7; details: read-out: Anti-proliferative activity IC50, MCF-7
H1975 cells = details: H1975, MTT
A549 cells = assay: cells; details: read-out: Anti-proliferative activity IC50, A549

| Structure (SMILES) | IC50 (HepG2 cells; Homo sapiens, HepG2, 72 h) [µM] | IC50 (MCF-7 cells; Homo sapiens, MCF7, 72 h) [µM] | IC50 (A549 cells; Homo sapiens, A549, 72 h) [µM] | IC50 (HepG2 cells; HepG2, MTT, 72 h) [µM] | IC50 (MCF-7 cells; MCF-7, MTT, 72 h) [µM] | IC50 (H1975 cells; read-out: Anti-proliferative activity IC50, H1975, 72 h) [µM] | IC50 (A549 cells; A549, MTT, 72 h) [µM] | inhibitory activity against H1975 cells (in words) (H1975 cells) |
| --- | --- | --- | --- | --- | --- | --- | --- | --- |
| CN(C)c1ccc(/C=N/NC(=O)Nc2cc3c(Nc4ccc(F)c(Cl)c4)ncnc3cc2O[C@H]2CCOC2)cc1 [Compound 10, (S,E)-N-(4-((3-chloro-4-fluorophenyl)amino)-7-((tetrahydrofuran-3-yl)oxy)quinazolin-6-yl)-2-(4-(dimethylamino)benzylidene)hydrazine-1-carboxamide] | 0.14 ± 0.08 | 0.61 ± 0.12 | 1.51 ± 0.13 | – | – | – | – | moderate inhibitory activity |
| CCN(CC)c1ccc(/C=N/NC(=O)Nc2cc3c(Nc4ccc(F)c(Cl)c4)ncnc3cc2OC)cc1 [Compound 11, (E)-N-(4-((3-chloro-4-fluorophenyl)amino)-7-methoxyquinazolin-6-yl)-2-(4-(diethylamino)benzylidene)hydrazine-1-carboxamide] | 11.5 ± 1.16 | 15.4 ± 1.14 | 31.4 ± 2.12 | – | – | – | – | – |
| CCN(CC)c1ccc(/C=N/NC(=O)Nc2cc3c(Nc4ccc(F)c(Cl)c4)ncnc3cc2O[C@H]2CCOC2)cc1 [Compound 12, (S,E)-N-(4-((3-chloro-4-fluorophenyl)amino)-7-((tetrahydrofuran-3-yl)oxy)quinazolin-6-yl)-2-(4-(diethylamino)benzylidene)hydrazine-1-carboxamide] | 0.31 ± 0.13 | 0.35 ± 0.09 | 0.28 ± 0.12 | – | – | – | – | moderate inhibitory activity |
| CN(C)c1ccc(/C=N/NC(=O)Nc2cc3c(Nc4ccc(F)c(Cl)c4)ncnc3cc2O[C@H]2CCOC2)s1 [Compound 16, (S,E)-N-(4-((3-chloro-4-fluorophenyl)amino)-7-((tetrahydrofuran-3-yl)oxy)quinazolin-6-yl)-2-((5-(dimethylamino)thiophen-2-yl)methylene)hydrazine-1-carboxamide] | 2.43 ± 0.45 | 3.68 ± 0.49 | 2.5 ± 0.36 | – | – | – | – | poorer cellular activity |
| COc1cc2ncnc(Nc3ccc(F)c(Cl)c3)c2cc1NC(=O)N/N=C/c1ccc(N2CCCC2)nc1 [Compound 17, (E)-N-(4-((3-chloro-4-fluorophenyl)amino)-7-methoxyquinazolin-6-yl)-2-((6-(pyrrolidin-1-yl)pyridin-3-yl)methylene) hydrazine-1-carboxamide] | – | – | – | 13.2 ± 1.31 | 12.9 ± 1.12 | 35.3 ± 2.35 | 14.6 ± 1.21 | – |
| O=C(N/N=C/c1ccc(N2CCCC2)nc1)Nc1cc2c(Nc3ccc(F)c(Cl)c3)ncnc2cc1O[C@H]1CCOC1 [Compound 18, (S,E)-N-(4-((3-chloro-4-fluorophenyl)amino)-7-((tetrahydrofuran-3-yl)oxy)quinazolin-6-yl)-2-((6-(pyrrolidin-1-yl)pyridin-3-yl)methylene)hydrazine-1-carboxamide] | 5.81 ± 0.61 | 12.4 ± 1.25 | 19.2 ± 1.46 | – | – | – | – | – |
| O=C(N/N=C/c1ccc(CN2CCCC2)cc1)Nc1cc2c(Nc3ccc(F)c(Cl)c3)ncnc2cc1O[C@H]1CCOC1 [Compound 27, (S,E)-N-(4-((3-chloro-4-fluorophenyl)amino)-7-((tetrahydrofuran-3-yl)oxy)quinazolin-6-yl)-2-(4-(pyrrolidin-1-ylmethyl)benzylidene)hydrazine-1-carboxamide] | > 100 | > 100 | > 100 | – | – | – | – | – |
| O=C(N/N=C/c1ccc(CN2CCCCC2)cc1)Nc1cc2c(Nc3ccc(F)c(Cl)c3)ncnc2cc1O[C@H]1CCOC1 [Compound 28, (S,E)-N-(4-((3-chloro-4-fluorophenyl)amino)-7-((tetrahydrofuran-3-yl)oxy)quinazolin-6-yl)-2-(4-(piperidin-1-ylmethyl)benzylidene)hydrazine-1-carboxamide] | 3.13 ± 0.45 | 4.3 ± 0.63 | 2.25 ± 0.32 | – | – | – | – | – |
| O=C(N/N=C/c1ccc(CN2CCOCC2)cc1)Nc1cc2c(Nc3ccc(F)c(Cl)c3)ncnc2cc1O[C@H]1CCOC1 [Compound 29, (S,E)-N-(4-((3-chloro-4-fluorophenyl)amino)-7-((tetrahydrofuran-3-yl)oxy)quinazolin-6-yl)-2-(4-(morpholinomethyl)benzylidene)hydrazine-1-carboxamide] | > 100 | > 100 | > 100 | – | – | – | – | – |
| O=C(N/N=C/c1ccc(OCCCN2CCCCC2)cc1)Nc1cc2c(Nc3ccc(F)c(Cl)c3)ncnc2cc1O[C@H]1CCOC1 [Compound 52, (S,E)-N-(4-((3-chloro-4-fluorophenyl)amino)-7-((tetrahydrofuran-3-yl)oxy)quinazolin-6-yl)-2-(4-(3-(piperidin-1-yl)propoxy)benzylidene)hydrazine-1-carboxamide] | 2.28 ± 0.26 | 2.56 ± 0.46 | 4.65 ± 0.39 | – | – | – | – | – |

The next lines start with results.

| IC50 (HepG2 cells; Homo sapiens, HepG2, 72 h) [µM] | IC50 (MCF-7 cells; Homo sapiens, MCF7, 72 h) [µM] | IC50 (A549 cells; Homo sapiens, A549, 72 h) [µM] | IC50 (HepG2 cells; HepG2, MTT, 72 h) [µM] | IC50 (MCF-7 cells; MCF-7, MTT, 72 h) [µM] | IC50 (H1975 cells; read-out: Anti-proliferative activity IC50, H1975, 72 h) [µM] | IC50 (A549 cells; A549, MTT, 72 h) [µM] | Structure (SMILES) | inhibitory activity against H1975 cells (in words) (H1975 cells) |
| --- | --- | --- | --- | --- | --- | --- | --- | --- |
| 0.72 ± 0.19 | 2.63 ± 0.16 | 2.84 ± 0.22 | – | – | – | – | COc1cc2ncnc(Nc3ccc(F)c(Cl)c3)c2cc1NC(=O)N/N=C/c1ccc(N(C)C)cc1 [Compound 9, (E)-N-(4-((3-chloro-4-fluorophenyl)amino)-7-methoxyquinazolin-6-yl)-2-(4-(dimethylamino)benzylidene)hydrazine-1-carboxamide] | poorer cellular activity |
| 1.35 ± 0.31 | 1.35 ± 0.14 | 1.48 ± 0.19 | – | – | – | – | O=C(N/N=C/c1ncc(N2CCOCC2)s1)Nc1cc2c(Nc3ccc(F)c(Cl)c3)ncnc2cc1O[C@H]1CCOC1 [Compound 13, (S,E)-N-(4-((3-chloro-4-fluorophenyl)amino)-7-((tetrahydrofuran-3-yl)oxy)quinazolin-6-yl)-2-((5-morpholinothiazol-2-yl)methylene)hydrazine-1-carboxamide] | moderate inhibitory activity |
| 8.17 ± 0.98 | 14 ± 0.78 | 10.5 ± 0.77 | – | – | – | – | O=C(N/N=C/c1ccc(N2CCCC2)o1)Nc1cc2c(Nc3ccc(F)c(Cl)c3)ncnc2cc1O[C@H]1CCOC1 [Compound 15, (S,E)-N-(4-((3-chloro-4-fluorophenyl)amino)-7-((tetrahydrofuran-3-yl)oxy)quinazolin-6-yl)-2-((5-(pyrrolidin-1-yl)furan-2-yl)methylene)hydrazine-1-carboxamide] | poorer cellular activity |
| 59.5 ± 4.75 | 31.1 ± 2.55 | 24.2 ± 2.27 | – | – | – | – | COc1cc2ncnc(Nc3ccc(F)c(Cl)c3)c2cc1NC(=O)N/N=C/c1ccc(CN2CCCCC2)cc1 [Compound 22, (E)-N-(4-((3-chloro-4-fluorophenyl)amino)-7-methoxyquinazolin-6-yl)-2-(4-(piperidin-1-ylmethyl)benzylidene)hydrazine-1-carboxamide] | – |
| > 100 | > 100 | > 100 | – | – | – | – | COc1cc2ncnc(Nc3ccc(F)c(Cl)c3)c2cc1NC(=O)N/N=C/c1ccc(CN2CCOCC2)cc1 [Compound 23, (E)-N-(4-((3-chloro-4-fluorophenyl)amino)-7-methoxyquinazolin-6-yl)-2-(4-(morpholinomethyl)benzylidene)hydrazine-1-carboxamide] | – |
| 53.6 ± 4.75 | 36.9 ± 3.54 | 23.1 ± 1.54 | – | – | – | – | CCN(CC)Cc1ccc(/C=N/NC(=O)Nc2cc3c(Nc4ccc(F)c(Cl)c4)ncnc3cc2O[C@H]2CCOC2)cc1 [Compound 26, (S,E)-N-(4-((3-chloro-4-fluorophenyl)amino)-7-((tetrahydrofuran-3-yl)oxy)quinazolin-6-yl)-2-(4-((diethylamino)methyl)benzylidene)hydrazine-1-carboxamide] | – |
| 17.5 ± 1.62 | 21 ± 1.68 | 24.9 ± 1.66 | – | – | – | – | CN1CCN(Cc2ccc(/C=N/NC(=O)Nc3cc4c(Nc5ccc(F)c(Cl)c5)ncnc4cc3O[C@H]3CCOC3)cc2)CC1 [Compound 30, (S,E)-N-(4-((3-chloro-4-fluorophenyl)amino)-7-((tetrahydrofuran-3-yl)oxy)quinazolin-6-yl)-2-(4-((4-methylpiperazin-1-yl)methyl)benzylidene)hydrazine-1-carboxamide] | – |
| 1.08 ± 0.17 | 1.23 ± 0.37 | 1.11 ± 0.14 | – | – | – | – | CCN(CC)CCCOc1ccc(/C=N/NC(=O)Nc2cc3c(Nc4ccc(F)c(Cl)c4)ncnc3cc2O[C@H]2CCOC2)cc1 [Compound 50, (S,E)-N-(4-((3-chloro-4-fluorophenyl)amino)-7-((tetrahydrofuran-3-yl)oxy)quinazolin-6-yl)-2-(4-(3-(diethylamino)propoxy)benzylidene)hydrazine-1-carboxamide] | – |
| 17 ± 1.04 | 28.5 ± 1.27 | 33.8 ± 1.14 | – | – | – | – | O=C(N/N=C/c1ccc(OCCCN2CCCC2)cc1)Nc1cc2c(Nc3ccc(F)c(Cl)c3)ncnc2cc1O[C@H]1CCOC1 [Compound 51, (S,E)-N-(4-((3-chloro-4-fluorophenyl)amino)-7-((tetrahydrofuran-3-yl)oxy)quinazolin-6-yl)-2-(4-(3-(pyrrolidin-1-yl)propoxy)benzylidene)hydrazine-1-carboxamide] | – |
| > 100 | > 100 | > 100 | – | – | – | – | O=C(N/N=C/c1ccc(OCCCN2CCOCC2)cc1)Nc1cc2c(Nc3ccc(F)c(Cl)c3)ncnc2cc1O[C@H]1CCOC1 [Compound 53, (S,E)-N-(4-((3-chloro-4-fluorophenyl)amino)-7-((tetrahydrofuran-3-yl)oxy)quinazolin-6-yl)-2-(4-(3-morpholinopropoxy)benzylidene)hydrazine-1-carboxamide] | – |
| 41.2 ± 2.04 | 38.4 ± 1.26 | 40 ± 2.14 | – | – | – | – | CN1CCN(CCCOc2ccc(/C=N/NC(=O)Nc3cc4c(Nc5ccc(F)c(Cl)c5)ncnc4cc3O[C@H]3CCOC3)cc2)CC1 [Compound 54, (S,E)-N-(4-((3-chloro-4-fluorophenyl)amino)-7-((tetrahydrofuran-3-yl)oxy)quinazolin-6-yl)-2-(4-(3-(4-methylpiperazin-1-yl)propoxy)benzylidene)hydrazine-1-carboxamide] | – |
